For 24 compounds, IC50 results are on record in patent US7932421B2, “N-cyclohexyl benzamides and benzeneacetamides as inhibitors of 11-beta-hydroxysteroid dehydrogenases” (Amgen Inc., priority 2006, dated 2011).

Where only a bound is given, the exact number is not on record here.

For the test, the target named is T1, human 11β-HSD1 (Homo sapiens, UniProt P28845).
T1 construct: made in house
T1 sequence (P28845 whole entry): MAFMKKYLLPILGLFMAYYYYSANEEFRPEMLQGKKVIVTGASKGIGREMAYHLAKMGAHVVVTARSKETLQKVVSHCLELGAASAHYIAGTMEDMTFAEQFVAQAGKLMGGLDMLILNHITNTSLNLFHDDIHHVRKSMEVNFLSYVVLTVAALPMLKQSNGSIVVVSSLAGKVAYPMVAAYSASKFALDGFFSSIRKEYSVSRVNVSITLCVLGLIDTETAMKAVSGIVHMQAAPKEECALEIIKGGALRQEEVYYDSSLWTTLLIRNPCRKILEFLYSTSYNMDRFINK
Description: hHSD1 SPA: inhibition of 11β-HSD1 (cortisone to cortisol conversion, scintillation proximity assay). It is filed as biochemical. The settings on record: recombinant human 11β-HSD1, SPA. The protocol:
Inhibition of 11β-HSD1 activity was examined by quantitative determination, by an SPA (scintillation proximity assay) system, of the suppressive action on the conversion from cortisone to cortisol using human 11β-HSD1 (hereinafter recombinant 11β-HSD1) expressed using a baculo-virus system as an enzyme source. For the reaction, a reagent was added to a 96-well plate (96-well Opti-plates™-96 (Packard)) to the following final concentration and a volume of 100 μl, and the reaction transpired at room temperature for 90 min. The reaction solution used was 0.1 μg/ml recombinant 11β-HSD1, 500 μM NADPH, 16 nM ^3H cortisone (Amersham Biosciences, […]) dissolved in 0.1% BSA (Sigma)-containing PBS and the test drug was 2 μl of a compound solution (dissolved in DMSO). […] After completion of the reaction, the plate was incubated overnight at room temperature and the radioactivity was measured by Topcount (Packard). […] The inhibition (%) of the test drug was calculated by ((value of control−value of test drug)/(value of control−value of positive control))×100(%). The IC50 value was analyzed using a computer-based curve fitting software.
Recombinant human, mouse and rat 11β-HSD1 were expressed in baculovirus expression system, isolated by affinity purification and used as the enzyme sources for cortisone to cortisol conversion in vitro. ^3H-Cortisone (Amersham Bioscience, […]. 49 Ci/mmol) was used as the substrate, and a monoclonal anti-cortisol antibody and the scintillation proximity assay (SPA) system were used to detect the product of the 11β-HSD1-catalyzed reaction, ^3H-cortisol. Reactions took place at room temperature for 90 min. in 96-well Opti-plates™-96 (Packard) in 100 μL volume with 2 μL test compounds or control in DMSO, 0.1 μg/mL 11β-HSD1 protein, 500 μM NADPH and 16 nM radioactive cortisone, in PBS buffer supplemented with 0.1% BSA (Sigma).
Plates were incubated at room temperature overnight before being read on a Topcount (Packard). The point of 50% inhibition of 11β-HSD1 enzyme activity (IC50) was determined by computer-based curve fitting.
(Scintillation proximity formats need no separation of bound from free tracer.)
What is called IC50 is the concentration at which inhibition is half-maximal. With `Cc1ccc(C(=O)N(C2CC2)[C@H]2CC[C@H](CCO)CC2)c(F)c1` [Compound 1, N-cyclopropyl-2-fluoro-N-(trans-4-(2-hydroxyethyl)cyclohexyl)-4-methylbenzamide], the IC50 was determined as 1.94 nM.

Regarding `Cc1ccc(C(=O)N(C2CC2)[C@H]2CC[C@H](CC(C)(C)O)CC2)c(F)c1` [Compound 2, N-cyclopropyl-2-fluoro-N-(trans-4-(2-hydroxy-2-methylpropyl)cyclohexyl)-4-methylbenzamide], the IC50 stood at 6.89 nM. As for `O=C(c1ccccc1F)N(C1CC1)[C@H]1CC[C@H](CCO)CC1` [Compound 3, N-Cyclopropyl-2-fluoro-N-(trans-4-(2-hydroxyethyl)cyclohexyl)benzamide], the IC50 was 3.95 nM. As for `O=C(c1cccc(F)c1)N(C1CC1)[C@H]1CC[C@H](CCO)CC1` [Compound 4, N-Cyclopropyl-3-fluoro-N-(trans-4-(2-hydroxyethyl)cyclohexyl)benzamide], the IC50 was 40.5 nM. For `O=C(c1ccc(F)cc1)N(C1CC1)[C@H]1CC[C@H](CCO)CC1` [Compound 5, N-Cyclopropyl-4-fluoro-N-(trans-4-(2-hydroxyethyl)cyclohexyl)benzamide], the IC50 turned out to be 21.9 nM. For `O=C(c1ccc(Cl)cc1)N(C1CC1)[C@H]1CC[C@H](CCO)CC1` [Compound 6, 4-Chloro-N-cyclopropyl-N-(trans-4-(2-hydroxyethyl)cyclohexyl)benzamide], the IC50 was found to be 6.9 nM. On to `O=C(c1cccc(F)c1F)N(C1CC1)[C@H]1CC[C@H](CCO)CC1` [Compound 7, N-Cyclopropyl-2,3-difluoro-N-(trans-4-(2-hydroxyethyl)cyclohexyl)benzamide], for which the IC50 was 30.8 nM. In the case of `O=C(c1ccc(Br)cc1F)N(C1CC1)[C@H]1CC[C@H](CCO)CC1` [Compound 8, 4-Bromo-N-cyclopropyl-2-fluoro-N-(trans-4-(2-hydroxyethyl)cyclohexyl)benzamide] it was 1.06 nM; in that of `COc1ccc(C(=O)N(C2CC2)[C@H]2CC[C@H](CCO)CC2)cc1` [Compound 9], 6.35 nM.

`CC(C)c1ccc(C(=O)N(C2CC2)[C@H]2CC[C@H](CCO)CC2)cc1` [Compound 11, N-Cyclopropyl-4-isopropyl-N-(trans-4-(2-hydroxyethyl)cyclohexyl)benzamide]: the IC50 amounted to 0.94 nM. With `O=C(c1ccccc1)N(C1CC1)[C@H]1CC[C@H](CCO)CC1` [Compound 13, N-Cyclopropyl-N-(trans-4-(2-hydroxyethyl)cyclohexyl)benzamide], the IC50 came out at 18.3 nM. In the case of `O=C(c1ccccc1F)N(C1CC1)[C@H]1CC[C@](CCO)(c2ccccn2)CC1` [Compound 14] it was 20.9 nM. In the case of `O=C(c1cccc(F)c1)N(C1CC1)[C@H]1CC[C@](CCO)(c2ccccn2)CC1` [Compound 15] it was 45.2 nM.

Regarding `O=C(c1ccc(F)cc1)N(C1CC1)[C@H]1CC[C@](CCO)(c2ccccn2)CC1` [Compound 16], the IC50 was more than 100 nM. Consider `O=C(c1ccc(Cl)cc1)N(C1CC1)[C@H]1CC[C@](CCO)(c2ccccn2)CC1` [Compound 19], for which the IC50 amounted to 23 nM. For `COc1cccc(C(=O)N(C2CC2)[C@H]2CC[C@](CCO)(c3ccccn3)CC2)c1` [Compound 23], the IC50 amounted to 61.4 nM. Under `COc1ccc(C(=O)N(C2CC2)[C@H]2CC[C@](CCO)(c3ccccn3)CC2)cc1` [Compound 24] stands 59.4 nM; under `COc1ccc(C(=O)N(C2CC2)[C@H]2CC[C@](CCO)(c3ccccn3)CC2)c(F)c1` [Compound 25], 21.7 nM; under `Cc1ccc(C(=O)N(C2CC2)[C@H]2CC[C@](CCO)(c3ccccn3)CC2)cc1` [Compound 26], 11.4 nM. In the case of `CN(C)C(=O)c1ccc(C(=O)N(C2CC2)[C@H]2CC[C@](CCO)(c3ccccn3)CC2)cc1` [Compound 27] it was more than 100 nM. Consider `CC(C)c1ccc(C(=O)N(C2CC2)[C@H]2CC[C@](CCO)(c3ccccn3)CC2)cc1` [Compound 28], for which the IC50 was found to be 7.2 nM.

With `CC(C)(C)c1ccc(C(=O)N(C2CC2)[C@H]2CC[C@](CCO)(c3ccccn3)CC2)cc1` [Compound 29], the IC50 was determined as 12.1 nM.

As for `O=C(c1ccc(C(F)(F)F)cc1)N(C1CC1)[C@H]1CC[C@](CCO)(c2ccccn2)CC1` [Compound 31], the IC50 stood at 54.3 nM.

`CC(C(=O)N(C1CC1)[C@H]1CC[C@H](CCO)CC1)c1ccccc1` (stereo partly drawn) [Compound 32, N-Cyclopropyl-N-(trans-4-(2-hydroxyethyl)cyclohexyl)-2-phenylpropionamide]: the 50% inhibitory concentration (IC50) came to 52.1 nM.
